Positions count from the first letter of the chain named. Names and notes keep the numbering of the source. Values joined by “and” are separate entries in the source; they are usually repeats but may differ in a detail not shown here. Identical values can stand only once.
T1: Ima5p (Saccharomyces cerevisiae, UniProt P40884)
T1 sequence (P40884 1-581): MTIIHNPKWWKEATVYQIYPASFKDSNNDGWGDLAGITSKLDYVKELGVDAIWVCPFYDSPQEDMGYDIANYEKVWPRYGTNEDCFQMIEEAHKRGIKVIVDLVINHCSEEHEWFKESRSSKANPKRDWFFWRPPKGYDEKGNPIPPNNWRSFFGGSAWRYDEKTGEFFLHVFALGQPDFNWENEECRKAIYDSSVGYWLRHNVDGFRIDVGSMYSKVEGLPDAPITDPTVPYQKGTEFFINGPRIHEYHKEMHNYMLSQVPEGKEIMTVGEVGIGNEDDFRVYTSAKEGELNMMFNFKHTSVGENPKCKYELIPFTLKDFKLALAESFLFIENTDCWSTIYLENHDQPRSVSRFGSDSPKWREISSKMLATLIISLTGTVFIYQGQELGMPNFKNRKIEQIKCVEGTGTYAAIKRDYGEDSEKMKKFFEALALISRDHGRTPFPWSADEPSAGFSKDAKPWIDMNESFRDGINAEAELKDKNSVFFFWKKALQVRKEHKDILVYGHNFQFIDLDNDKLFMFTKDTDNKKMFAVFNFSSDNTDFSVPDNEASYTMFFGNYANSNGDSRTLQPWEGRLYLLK

B1: Ima2p: isomaltase from S. cerevisiae encoded by IMA2/YOL157C, His-tagged, purified (protein, UniProt Q08295 1-589, looked up)
Oligo-1,6-glucosidase IMA2: MTISSAHPETEPKWWKEATIYQIYPASFKDSNNDGWGDMKGIASKLEYIKELGADAIWISPFYDSPQDDMGYDIANYEKVWPTYGTNEDCFALIEKTHKLGMKFITDLVINHCSSEHEWFKESRSSKTNPKRDWFFWRPPKGYDAEGKPIPPNNWRSYFGGSAWTFDEKTQEFYLRLFCSTQPDLNWENEDCRKAIYESAVGYWLDHGVDGFRIDVGSLYSKVAGLPDAPVIDENSKWQPSDPFTMNGPRIHEFHQEMNKFIRNRVKDGREIMTVGEMQHATDETKRLYTSASRHELSELFNFSHTDVGTSPKFRQNLIPYELKDWKVALAELFRYVNGTDCWSTIYLENHDQPRSITRFGDDSPKNRVISGKLLSVLLVSLSGTLYVYQGQELGEINFKNWPIEKYEDVEVRNNYDAIKEEHGENSKEMKRFLEAIALISRDHARTPMQWSREEPNAGFSGPNAKPWFYLNESFREGINAEDESKDPNSVLNFWKEALRFRKAHKDITVYGYDFEFIDLDNKKLFSFTKKYDNKTLFAALNFSSDSIDFTIPNNSSSFKLEFGNYPRSEVDASSRTLKPWEGRIYISE
modifications: His tag
B2: Ima3p_L240P: Ima3p variant with L240P mutation (protein, UniProt P0CW40 1-589, looked up, variant L240P)
Oligo-1,6-glucosidase IMA3: B1 Oligo-1,6-glucosidase IMA2 with A54T, Q279R
B3: Ima3p: isomaltase from S. cerevisiae encoded by IMA3/YIL172C (identical IMA4), His-tagged, purified (protein, UniProt P0CW41 1-589, looked up)
Oligo-1,6-glucosidase IMA4: B1 Oligo-1,6-glucosidase IMA2 with A54T, P240L, Q279R
modifications: His tag
B4: Ima1p: isomaltase from S. cerevisiae encoded by IMA1/YGR287C, His-tagged, purified (protein, UniProt P53051 2-589, looked up)
Oligo-1,6-glucosidase IMA1: TISSAHPETEPKWWKEATFYQIYPASFKDSNDDGWGDMKGIASKLEYIKELGADAIWISPFYDSPQDDMGYDIANYEKVWPTYGTNEDCFALIEKTHKLGMKFITDLVINHCSSEHEWFKESRSSKTNPKRDWFFWRPPKGYDAEGKPIPPNNWKSYFGGSAWTFDEKTQEFYLRLFCSTQPDLNWENEDCRKAIYESAVGYWLDHGVDGFRIDVGSLYSKVVGLPDAPVVDKNSTWQSSDPYTLNGPRIHEFHQEMNQFIRNRVKDGREIMTVGEMQHASDETKRLYTSASRHELSELFNFSHTDVGTSPLFRYNLVPFELKDWKIALAELFRYINGTDCWSTIYLENHDQPRSITRFGDDSPKNRVISGKLLSVLLSALTGTLYVYQGQELGQINFKNWPVEKYEDVEIRNNYNAIKEEHGENSEEMKKFLEAIALISRDHARTPMQWSREEPNAGFSGPSAKPWFYLNDSFREGINVEDEIKDPNSVLNFWKEALKFRKAHKDITVYGYDFEFIDLDNKKLFSFTKKYNNKTLFAALNFSSDATDFKIPNDDSSFKLEFGNYPKKEVDASSRTLKPWEGRIYISE
modifications: His tag

Key:
[1] = target: T1, Ima5p; test: Substrate specificity of purified isomaltase; format: biochemical; details: 100 mM substrate (pNPG 5 mM), pH 7, 30 °C; for Specific activities: citrate–potassium phosphate buffer
[2] = target: Ima1p (Saccharomyces cerevisiae, UniProt P53051); test: Substrate specificity of purified isomaltase; format: biochemical; details: 100 mM substrate (pNPG 5 mM), pH 7, 30 °C; for Specific activities: citrate–potassium phosphate buffer
[3] = target: Ima3p (Saccharomyces cerevisiae, UniProt P0CW40); test: Substrate specificity of purified isomaltase; format: biochemical; details: 100 mM substrate (pNPG 5 mM), pH 7, 30 °C; for Specific activities: citrate–potassium phosphate buffer
[4] = target: Ima2p (Saccharomyces cerevisiae, UniProt Q08295); test: Substrate specificity of purified isomaltase; format: biochemical; details: 100 mM substrate (pNPG 5 mM), pH 7, 30 °C; for Specific activities: citrate–potassium phosphate buffer
[5] = Thermostability assay: time-dependent heat inactivation, half-life; format: biochemical, Saccharomyces cerevisiae; details: pNPG 5 mM, mean ± 2 SEM
[6] = Melting temperature by differential scanning fluorimetry; format: physicochemical, Saccharomyces cerevisiae; details: for Tm: mean ± 2 SEM; for decrease of Tm on increase by one pH unit (pH 8): pH 7 to pH 8

Ima3p, sequence (P0CW40 whole entry): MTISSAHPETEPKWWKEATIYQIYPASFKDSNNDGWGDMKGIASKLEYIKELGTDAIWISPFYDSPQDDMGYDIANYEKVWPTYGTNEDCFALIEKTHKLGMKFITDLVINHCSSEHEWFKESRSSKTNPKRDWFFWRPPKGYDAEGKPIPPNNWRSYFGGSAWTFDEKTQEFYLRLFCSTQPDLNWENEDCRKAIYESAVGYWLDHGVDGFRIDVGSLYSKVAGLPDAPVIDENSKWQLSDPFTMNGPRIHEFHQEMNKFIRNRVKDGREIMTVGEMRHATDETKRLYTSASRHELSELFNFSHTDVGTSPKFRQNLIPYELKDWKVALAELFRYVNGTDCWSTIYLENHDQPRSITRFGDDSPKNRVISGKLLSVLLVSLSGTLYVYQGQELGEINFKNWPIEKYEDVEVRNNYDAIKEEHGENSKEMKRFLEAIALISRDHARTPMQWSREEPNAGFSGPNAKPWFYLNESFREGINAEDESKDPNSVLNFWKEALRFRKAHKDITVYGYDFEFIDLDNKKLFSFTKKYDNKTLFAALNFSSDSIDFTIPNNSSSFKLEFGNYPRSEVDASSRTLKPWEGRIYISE
Ima1p, sequence (P53051 whole entry): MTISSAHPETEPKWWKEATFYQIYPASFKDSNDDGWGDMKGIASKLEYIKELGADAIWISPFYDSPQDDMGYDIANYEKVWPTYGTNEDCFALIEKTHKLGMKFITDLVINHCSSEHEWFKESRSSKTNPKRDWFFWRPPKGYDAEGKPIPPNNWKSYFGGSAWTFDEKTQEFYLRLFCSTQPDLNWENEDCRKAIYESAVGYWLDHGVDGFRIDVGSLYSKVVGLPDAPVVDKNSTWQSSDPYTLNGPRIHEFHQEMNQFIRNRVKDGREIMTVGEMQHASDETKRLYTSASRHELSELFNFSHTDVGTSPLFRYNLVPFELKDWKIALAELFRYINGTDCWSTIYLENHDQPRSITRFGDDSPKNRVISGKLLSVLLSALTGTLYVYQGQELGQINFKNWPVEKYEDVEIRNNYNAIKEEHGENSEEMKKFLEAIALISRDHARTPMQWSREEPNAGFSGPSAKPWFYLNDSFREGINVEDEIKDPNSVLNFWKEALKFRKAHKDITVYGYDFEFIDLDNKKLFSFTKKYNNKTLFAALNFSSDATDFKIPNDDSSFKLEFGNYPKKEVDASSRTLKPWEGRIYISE

Molecule | Specific activities [1] | relative activity, velocity on isomaltose set to 100 [1] | Specific activities [2] | relative activity, velocity on isomaltose set to 100 [2] | Specific activities [3] | Specific activities [4] | relative activity, velocity on isomaltose set to 100 [4] | t1/2 ([5]; 37 °C) | t1/2 ([5]; 40 °C) | Tm ([6]; pH 7, DSF) | also measured
OC[C@H]1O[C@H](O[C@@H]2[C@@H](O)[C@@H](O)O[C@H](CO)[C@H]2O)[C@H](O)[C@@H](O)[C@@H]1O [Nigerose, O-α-D-Glucosyl-(1→3)-α-D-glucose] | 4.2 µmol/min/mg | 6% | 6.5 µmol/min/mg | 11% | 2.5 µmol/min/mg | 6.8 µmol/min/mg | 13% | – | – | – | relative activity, velocity on isomaltose set to 100 [3]: 35%
OC[C@H]1O[C@H](O[C@@H]2[C@@H](O)[C@H](O)[C@@H](CO)O[C@@H]2O)[C@H](O)[C@@H](O)[C@@H]1O [Kojibiose, O-α-D-Glucosyl-(1→2)-α-D-glucose] | 2.5 µmol/min/mg | 4% | 7.7 µmol/min/mg | 13% | 0 µmol/min/mg | 6.9 µmol/min/mg | 13% | – | – | – | –
O=C(CO)[C@@H](O[C@H]1O[C@H](CO)[C@@H](O)[C@H](O)[C@H]1O)[C@H](O)[C@H](O)CO [Turanose, O-α-D-Glucosyl-(1→3)-D-fructose] | 1.2 µmol/min/mg | 2% | 4.3 µmol/min/mg | 7% | 1.8 µmol/min/mg | 3.5 µmol/min/mg | 6% | – | – | – | relative activity, velocity on isomaltose set to 100 [3]: 25%
OC[C@H]1O[C@H](O[C@H]2[C@H](O)[C@@H](O)[C@@H](O[C@H]3[C@H](O)[C@@H](O)C(O)O[C@@H]3CO)O[C@@H]2CO)[C@H](O)[C@@H](O)[C@@H]1O (stereo partly drawn) [Maltotriose, O-α-D-Glucosyl-(1→4)-α-D-glucosyl-(1→4)-D-glucose] | 3.4 µmol/min/mg | 5% | 3.5 µmol/min/mg | 6% | 0 µmol/min/mg | 3.4 µmol/min/mg | 6% | – | – | – | relative activity, velocity on isomaltose set to 100 ([1]; listed as maltotriose): approx. 5%; relative activity, velocity on isomaltose set to 100 ([2]; listed as maltotriose): approx. 5%; relative activity, velocity on isomaltose set to 100 ([4]; listed as maltotriose): approx. 5%
OC[C@H]1O[C@@](CO)(O[C@H]2O[C@H](CO)[C@@H](O)[C@H](O)[C@H]2O)[C@@H](O[C@H]2O[C@H](CO)[C@@H](O)[C@H](O)[C@H]2O)[C@@H]1O [Melezitose, O-α-D-Glucosyl-(1→3)-β-D-fructosyl-(2→1)-D-glucose] | 0 µmol/min/mg | – | 0 µmol/min/mg | – | 0 µmol/min/mg | 0 µmol/min/mg | – | – | – | – | –
OC[C@H]1O[C@H](O[C@@H]2[C@@H](CO)OC(O)(CO)[C@H]2O)[C@H](O)[C@@H](O)[C@@H]1O (stereo partly drawn) [Maltulose, O-α-D-Glucosyl-(1→4)-D-fructose] | 0.36 µmol/min/mg | 1% | 0 µmol/min/mg | – | 0 µmol/min/mg | 0.53 µmol/min/mg | 1% | – | – | – | –
OC[C@H]1O[C@H](O[C@H]2O[C@H](CO)[C@@H](O)[C@H](O)[C@H]2O)[C@H](O)[C@@H](O)[C@@H]1O [Trehalose, O-α-D-Glucosyl-(1→1)-α-D-glucose] | 0 µmol/min/mg | – | 0 µmol/min/mg | – | 0 µmol/min/mg | 0 µmol/min/mg | – | – | – | – | –
B1 | – | – | – | – | – | – | – | 27.4 ± 1.6 min | 18.5 ± 1.6 min | 46.2 ± 0.8 °C | t1/2 ([5]; 42 °C): 11.2 ± 0.7 min; Tm ([6]; pH 6, DSF): 55.1 ± 0.2 °C; decrease of Tm on increase by one pH unit (pH 8) [6]: 13 °C; Tm ([6]; pH 8, DSF): 33.2 ± 0.6 °C
B2 | – | – | – | – | – | – | – | 26.5 ± 2.2 min | 16.2 ± 1.8 min | 39.7 °C and 39.7 ± 0.4 °C | t1/2 ([5]; 42 °C): 8.5 ± 1.3 min; increase of Tm relative to Ima3p ([6]; pH 7): 1 °C
B3 | – | – | – | – | – | – | – | 23.2 ± 1.4 min | 7.6 ± 0.9 min | 38.8 ± 0.5 °C | t1/2 ([5]; 42 °C): 2.9 ± 0.5 min; Tm ([6]; pH 6, DSF): 47.0 ± 0.3 °C; Tm ([6]; pH 8, DSF): 29.9 ± 0.3 °C
B4 | – | – | – | – | – | – | – | 26.1 ± 1.7 min | 17.6 ± 1.7 min | 46.6 ± 0.7 °C | Tm ([6]; pH 6, DSF): 55.5 ± 0.6 °C; decrease of Tm on increase by one pH unit (pH 8) [6]: 5 °C; Tm ([6]; pH 8, DSF): 41.6 ± 0.2 °C

Source: publication PMC3953731 (FEBS Open Bio, 2014)
